“Also recorded” adds a separate entry of the source. Blank lines part the entries; values can stand above or below the compound they belong to.
Assays:
[1] = cited from earlier work
[2] = system: muscarinic receptors on gastric chief cells; test: Competition for binding with a muscarinic radioligand, gastric chief cells
[3] = system: muscarinic receptors on gastric chief cells; test: IP formation, gastric chief cells; format: cell-based
[4] = system: muscarinic receptors on gastric chief cells; test: Pepsinogen secretion from gastric chief cells; format: cell-based
M1R and M3R = system: M1R and M3R
Text: Muscarinic receptor subtypes were expressed in murine gastric chief cells using M1R^−/−, M3R^−/− and M1/3R^−/− mice. […] The mice were generated using gene targeting.

colon cancer cells [5] = test: Post-EGFR PI3K/Akt and GSK-3 signaling in colon cancer cells; format: cell-based
Text: The rationale for including both murine colon cancer models in this study is to observe important differences between these cancer models. Although the Apc^Min/+ genotype mimics more closely the human condition (e.g. FAP), the AOM-treated mouse phenotype is more similar to human colon cancer. […] Additionally, Apc^Min/+ mice provide an opportunity to study the relationship between M3R and activation and expression of genes in the Wnt/β-catenin signaling pathway. Binding of Wnt to its cell surface receptor (Frizzled) leads to activation of β-catenin (nuclear translocation and binding to Tcf/LEF, resulting in transcription of important target genes, including cyclin D1). Apc, is a scaffold protein that promotes GSK-3α/β-mediated phosphorylation of β-catenin; phosphorylated β-catenin is targeted for proteosomal degradation, thereby preventing nuclear translocation and pro-proliferative gene transcription. Mutated Apc in Apc^Min/+ mice results in reduced β-catenin phosphorylation, thereby promoting nuclear translocation and pro-proliferative actions. […] These findings provide strong evidence that bile acid-activated M3R signaling can promote pro-proliferative actions of β-catenin. The Apc^Min/+ mouse provides an excellent model to elucidate the role of M3R activation and expression in Wnt/β-catenin signaling.
(§1) apoptosis, or both. Deoxycholic acid induces apoptosis.

H508 cells [6] = test: Cell proliferation, sulforhodamine B (SRB) colorimetric assay, H508 cells; format: cell-based, human; conditions: 5 days, 37° C.; for proliferation of H508 cells: alone, cells co-express M3R and EGFR
Method: (§2) FIG. 1 depicts bile acid-induced colon cancer cell proliferation which requires M3R expression and activation in H508 and SNU-C4 cells. […] Cell proliferation was determined using the sulforhodamine B (SRB) colorimetric assay. Mean±SEM of 3 exp.
(§3) Cells that are known to express both EGFR and M3R were treated with several M3R antagonists and bile acid conjugates to determine if M3R ligand binding affected EGFR activation. […] Cell proliferation was determined using the sulforhodamine B (SRB) colorimetric assay. […] Mean±SEM of 3 exp.
MAPK activation was detected with 10 μM and maximal with 300 μM DCT. […] DCT-induced MAPK activation is rapid and reversible. MAPK activation is detected within 1 min, maximal by 10-20 min and returns to basal by 70 min. Collectively these findings emphasize the importance of co-expression of M3R and EGFR for both ACh- and bile acid-induced colon cancer cell proliferation, and define relevant DCT concentrations.

colon cancer cells [7] = test: Caspase-3 activation (apoptosis) in colon cancer cells; format: cell-based
Text: as §1

SNU-C4 cells = test: Cell proliferation, sulforhodamine B (SRB) colorimetric assay, SNU-C4 cells; format: cell-based, human; conditions: 5 days, 37° C., alone; cells express EGFR but not M3R
Method: as §2, §3

H508 cells [8] = test: p44/42 MAPK phosphorylation/activation in H508 colon cancer cells; format: cell-based, human
Text: (§4) In H508 colon cancer cells, acetylcholine (ACh) activates p44/42 MAPK and p90RSK, which is a nuclear response protein that regulates gene expression and the cell cycle.

[9] = system: CHO cells expressing rat M3R (CHO-rM3R); test: p44/42 MAPK phosphorylation in CHO cells expressing rat M3R; format: cell-based
Text: as §4

WT and M3R−/− mice = test: AOM murine colon cancer model (WT and M3R-/- mice); format: in vivo, mouse; conditions: for colon tumor number: 20 weeks
Method: WT and M3R^−/− male mice (129S6/SvEvTac×CFl; 50%/50%) were treated for 6 wks in which 48 animals received weekly intraperitoneal (ip) PBS (control) or AOM (10 mg/kg). The AOM mouse model is a well-established, commonly used model that mimics human colon carcinogenesis. AOM, an intermediate in the metabolism of 1,2-dimethylhydrazine to the alkylating ion methyldiazonium, is a well-known colorectal-specific pro carcinogen. AOM-induced rodent tumors mimic human colon cancer in that most tumors arise in the colon, form grossly visible exophytic polypoid or plaque-like growths, and have a microscopic appearance similar to that of human lesions. Molecular changes in AOM-induced tumors, including β-catenin and p53 mutations, which also mimic those in human colon cancer. […] Short-term study end-points are identified (e.g. aberrant crypt foci (ACF), β-catenin-accumulating crypts (BCAC) and BrdUrd staining) and potential toxicity was evaluated, a smaller group of mice is euthanized early, upon completion of AOM treatment. During the study, WT and M3R^−/− mice were given weekly (for 6 weeks) intraperitoneal (ip) PBS (control; n=10 WT-PBS mice) or AOM (10 mg/kg; n=22 WT-AOM and 16 WT and M3R^−/−-AOM mice). […] Animals were housed under identical conditions and fed standard mouse chow. Mice were weighed weekly, observed for evidence of tumor formation (e.g., anal bleeding) and euthanized at 20 weeks. Colon length was measured, segments opened longitudinally, and tumors identified and photographed using a Nikon SMZ1500 dissecting microscope. Tumor number and diameter were measured using Image-Pro software and tumor volume was calculated: vol=½ width×length^2. Two hours before euthanasia, mice received intraperitoneal injection of BrdU (Sigma-Aldrich) (50 mg/kg) to label S-phase cells, a marker of proliferation. BrdU labeling was determined after immunostaining with anti-BrdU antibody (BD Bioscience) by counting BrdU-positive nuclei in 1000 cells (data expressed as percent of total cells that were BrdU-positive). As a marker of apoptosis, we used immunostaining with anti-activated caspase-3 antibody (Cell Signaling Technology). Only complete crypts were evaluated and investigators were masked to treatment group. For analysis of both BrdU and activated caspase-3 staining, only tissue from the distal half of the colon was examined.

Compound: CCCC[N+]1(C)[C@@H]2C[C@@H](OC(=O)[C@H](CO)c3ccccc3)C[C@H]1[C@@H]1O[C@@H]12 (stereo partly drawn) [scopolamine butylbromide]
activity of metabolites ([1]; in vivo): inactive
half-life of the terminal elimination phase ([1]; in vivo): about 5 hr
protein binding ([1]; in vivo): low
blood-brain barrier crossing ([1]; quaternary ammonium derivative): does not cross the blood-brain barrier

Compound: NCCS(=O)(=O)O [taurine]
competition for binding with a muscarinic radioligand [2]: did not alter
IP formation [3]: did not alter
pepsinogen secretion [4]: did not alter

Compound: cholyltaurine
competition for binding with a muscarinic radioligand [2]: did not alter
IP formation [3]: did not alter
pepsinogen secretion [4]: did not alter

Compound: cholecystokinin [cholecystokinin (CCK)]
agonist-induced pepsinogen secretion (M1R and M3R): not altered

Compound: C[C@H](CCC(=O)NCCS(=O)(=O)O)[C@H]1CC[C@H]2[C@@H]3CC[C@@H]4C[C@H](O)CC[C@]4(C)[C@H]3C[C@H](O)[C@]12C [DCT, Deoxycholyltaurine]
phosphorylation of GSK-3α/β (colon cancer cells [5]; colon cancer cells): stimulates an inactivating phosphorylation
post-EGFR PI3K/Akt signaling (colon cancer cells [5]; preliminary studies): activates
proliferation of H508 cells (H508 cells [6]): stimulate proliferation; also recorded: stimulated after 5 days
DCT-induced apoptosis (caspase-3 activation) (colon cancer cells [7]): no evidence of DCT-induced apoptosis
proliferation of SNU-C4 cells (SNU-C4 cells): do not significantly alter proliferation
DCT concentration at which MAPK activation was detected (H508 cells [8]): 10 µM
DCT concentration at which MAPK activation was maximal (H508 cells [8]): 300 µM
time at which MAPK activation is detected (H508 cells [8]): ≤ 1 min
time at which MAPK activation returns to basal (H508 cells [8]): ≤ 70 min
time of maximal MAPK activation (H508 cells [8]): 10 to 20 min

Compound: C[C@H](CCC(=O)NCCS(=O)(=O)O)[C@H]1CC[C@H]2[C@@H]3CC[C@@H]4C[C@H](O)CC[C@]4(C)[C@H]3CC[C@]12C [LCT, lithocholyltaurine]
competition for binding with a muscarinic radioligand [2]: competed for binding
proliferation of H508 cells (H508 cells [6]): stimulate proliferation
proliferation of SNU-C4 cells (SNU-C4 cells): do not significantly alter proliferation
IP formation [3]: increased IP formation
pepsinogen secretion [4]: stimulating pepsinogen secretion

Compound: CN1[C@@H]2CC[C@H]1C[C@@H](OC(=O)C(CO)c1ccccc1)C2 (stereo partly drawn) [atropine]
inhibition of actions of DCT on H508 proliferation (H508 cells [6]; with DCT): inhibited
inhibition of the actions of LCT [4]: inhibited the actions of LCT

Compound: C[C@H](CCC(=O)NCC(=O)O)[C@H]1CC[C@H]2[C@@H]3CC[C@@H]4C[C@H](O)CC[C@]4(C)[C@H]3C[C@H](O)[C@]12C [DCG]
proliferation of H508 cells (H508 cells [6]): stimulate proliferation
proliferation of SNU-C4 cells (SNU-C4 cells): do not significantly alter proliferation

Compound: CC(=O)OCC[N+](C)(C)C [ACh, acetylcholine]
ACh-induced p44/42 MAPK phosphorylation [9]: 27 fold
ACh-induced p44/42 MAPK phosphorylation (H508 cells [8]; H508 cells): 14 fold

adenocarcinomas/mouse (WT and M3R−/− mice; AOM-treated M3R-/- mice): 0.6±0.1
mice with adenomas (WT and M3R−/− mice; AOM-treated M3R-/- mice): 6%
tumor volume (WT and M3R−/− mice; AOM-treated M3R-/- mice): 8.1±1.5 mm^3
colon tumor number (WT and M3R−/− mice; AOM-treated M3R-/- mice): 3.2±0.3 tumors/colon
adenocarcinomas/mouse (WT and M3R−/− mice; AOM-treated WT mice): 1.7±0.4
mice with adenomas (WT and M3R−/− mice; AOM-treated WT mice): 36%
tumor volume (WT and M3R−/− mice; AOM-treated WT mice): 20.3±4.1 mm^3
colon tumor number (WT and M3R−/− mice; AOM-treated WT mice): 5.3±0.5 tumors/colon
increase in tumors/animal (WT and M3R−/− mice; WT mice treated with AOM): 5 fold
Compound: CN=[N+](C)[O-] [AOM, azoxymethane]
BrdU-positive cells in colon epithelium (WT and M3R−/− mice; AOM-treated M3R-/- mice): 7.2±0.9%
BrdU-positive cells in colon epithelium (WT and M3R−/− mice; AOM-treated WT mice): 16.6±4.0%
increase in BrdU-positive epithelial cells (WT and M3R−/− mice; AOM-treated WT mice vs PBS-treated WT, 10 mg/kg ip weekly x 6 wks, 20 wks): 5 fold
number of apoptotic cells (activated caspase-3) (WT and M3R−/− mice; PBS-treated WT, AOM-treated WT and M3R-/- mice): no significant difference

Reference: patent US20090010923A1, “TREATMENT OF CANCER WITH ANTI-MUSCARINIC RECEPTOR AGENTS” (University of Maryland, Baltimore, priority 2007, published 2009)
